ChEMBL document CHEMBL4602648, “The bioisosteric modification of pyrazinamide derivatives led to potent antitubercular agents: Synthesis via click approach and molecular docking of pyrazine-1,2,3-triazoles” (Bioorg Med Chem Lett, 2020)
Converted amounts (≈) assume the structure as drawn. The source made the active and inactive calls. No cut-off for these calls is given here.

Experiments:
Staphylococcus aureus = experiment: Antibacterial activity against Staphylococcus aureus by dilution assay; type: functional
Escherichia coli = experiment: Antibacterial activity against Escherichia coli by dilution assay; type: functional
[1] = target: T1, Enoyl-[acyl-carrier-protein] reductase [NADH] (Mycobacterium tuberculosis) (UniProt P9WGR1); experiment: Inhibition of Mycobacterium tuberculosis H37Rv ATCC 27294 InhA assessed as bacterial growth inhibition after 5 days by microplate alamar blue assay
T1 sequence (whole entry): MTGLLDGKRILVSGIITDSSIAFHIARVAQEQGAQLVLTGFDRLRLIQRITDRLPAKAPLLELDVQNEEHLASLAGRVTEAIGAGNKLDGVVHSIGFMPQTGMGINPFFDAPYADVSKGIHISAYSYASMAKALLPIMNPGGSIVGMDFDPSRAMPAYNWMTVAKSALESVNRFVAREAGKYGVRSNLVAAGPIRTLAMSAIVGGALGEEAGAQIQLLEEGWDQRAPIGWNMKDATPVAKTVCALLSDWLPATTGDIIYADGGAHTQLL

Pseudomonas aeruginosa = experiment: Antibacterial activity against Pseudomonas aeruginosa by dilution assay; type: functional
[2] = Selectivity index, ratio of IC50 for cytotoxicity against African green monkey Vero cells to MIC for antitubercular activity against Mycobacterium tuberculosis H37Rv ATCC 27294; type: toxicity, cell-based; details: read-out: Selectivity Index
Vero = experiment: Cytotoxicity against African green monkey Vero cells assessed as reduction in cell viability incubated for 48 hrs by MTT assay; type: cell-based; details: Chlorocebus sabaeus
[3] = Cytotoxicity against African green monkey Vero cells assessed as growth inhibition at 62.5 ug/ml after 48 hrs by MTT assay relative to control; type: cell-based; details: chlorocebus sabaeus, read-out: GI

Structure (SMILES)	MIC (Staphylococcus aureus) [µg/mL]	MIC (Escherichia coli)	MIC [1] [µM]	MIC (Pseudomonas aeruginosa)	selectivity ratio [2]	IC50 (Vero) [µg/mL]	inhibition at 48 h, 62.5 ug/ml [3] [%]
O=C(NCc1cn(Cc2ccc(F)cc2)nn1)c1cccnc1	12.5 (≈ 40.2 µM)	12.5 µg/mL (≈ 40.2 µM)	80.3 (≈ 25 µg/mL)	25 µg/mL (≈ 80.3 µM)			
O=C(NCc1cn(Cc2ccc(C(F)(F)F)cc2)nn1)c1cccnc1	12.5 (≈ 34.6 µM)	6.25 µg/mL (≈ 17.3 µM)	4.31 (≈ 1.56 µg/mL)	12.5 µg/mL (≈ 34.6 µM)	216	336 (≈ 931 µM)	7.42
O=C(OCc1cn(Cc2ccccc2F)nn1)c1cccnc1	50 (≈ 160 µM)	25 µg/mL (≈ 80.1 µM)	80 (≈ 25 µg/mL)	50 µg/mL (≈ 160 µM)			
O=C(NCc1cn(Cc2ccccc2F)nn1)c1cccnc1	6.25 (≈ 20.1 µM)	25 µg/mL (≈ 80.3 µM)	10 (≈ 3.12 µg/mL)	25 µg/mL (≈ 80.3 µM)			
N#Cc1ccc(Cn2cc(COC(=O)c3cnccn3)nn2)cc1	12.5 (≈ 39 µM)	50 µg/mL (≈ 156 µM)	9.74 (≈ 3.12 µg/mL)	25 µg/mL (≈ 78 µM)			
O=C(OCc1cn(Cc2ccc([N+](=O)[O-])cc2)nn1)c1cnccn1	25 (≈ 73.5 µM)	25 µg/mL (≈ 73.5 µM)	18.4 (≈ 6.25 µg/mL)	50 µg/mL (≈ 147 µM)			
Fc1ccccc1Cn1cc(CSc2nnc(-c3cccnc3)o2)nn1	50 (≈ 136 µM)	50 µg/mL (≈ 136 µM)	> 100	25 µg/mL (≈ 67.9 µM)			
O=C(NCc1cn(Cc2ccc(C(F)(F)F)cc2)nn1)c1cnccn1	12.5 (≈ 34.5 µM)	12.5 µg/mL (≈ 34.5 µM)	4.31 (≈ 1.56 µg/mL)	25 µg/mL (≈ 69 µM)	219	342 (≈ 944 µM)	8.4
O=C(NCc1cn(Cc2ccc(C(F)(F)F)cc2)nn1)c1ccccc1	50 (≈ 139 µM)	inactive	> 100	25 µg/mL (≈ 69.4 µM)			
O=C(NCc1cn(Cc2ccc(F)cc2)nn1)c1ccccc1	50 (≈ 161 µM)	inactive	> 100	inactive			
O=C(OCc1cn(Cc2ccccc2F)nn1)c1ccccc1	25 (≈ 80.3 µM)	25 µg/mL (≈ 80.3 µM)	80.3 (≈ 25 µg/mL)	50 µg/mL (≈ 161 µM)			
O=C(NCc1cn(Cc2ccc([N+](=O)[O-])cc2)nn1)c1cnccn1	3.12 (≈ 9.19 µM)	6.25 µg/mL (≈ 18.4 µM)	4.59 (≈ 1.56 µg/mL)	6.25 µg/mL (≈ 18.4 µM)	258	403 (≈ 1190 µM)	20.5
FC(F)(F)c1ccc(Cn2cc(CSc3nnc(-c4cnccn4)o3)nn2)cc1	25 (≈ 59.6 µM)	25 µg/mL (≈ 59.6 µM)	59.6 (≈ 25 µg/mL)	25 µg/mL (≈ 59.6 µM)			
O=C(OCc1cn(Cc2ccc(F)cc2)nn1)c1cnccn1	12.5 (≈ 39.9 µM)	12.5 µg/mL (≈ 39.9 µM)	9.95 (≈ 3.12 µg/mL)	25 µg/mL (≈ 79.8 µM)			
O=C(OCc1cn(Cc2ccc(C(F)(F)F)cc2)nn1)c1ccccc1	50 (≈ 138 µM)	inactive	> 100	inactive			
N#Cc1ccc(Cn2cc(CNC(=O)c3ccccc3)nn2)cc1	25 (≈ 78.8 µM)	25 µg/mL (≈ 78.8 µM)	39.4 (≈ 12.5 µg/mL)	25 µg/mL (≈ 78.8 µM)			
O=C(OCc1cn(Cc2ccccc2F)nn1)c1cnccn1	25 (≈ 79.8 µM)	25 µg/mL (≈ 79.8 µM)	19.9 (≈ 6.23 µg/mL)	50 µg/mL (≈ 160 µM)			
O=C(OCc1cn(Cc2ccc(C(F)(F)F)cc2)nn1)c1cccnc1	25 (≈ 69 µM)	25 µg/mL (≈ 69 µM)	34.5 (≈ 12.5 µg/mL)	50 µg/mL (≈ 138 µM)			
O=[N+]([O-])c1ccc(Cn2cc(CSc3nnc(-c4cccnc4)o3)nn2)cc1	25 (≈ 63.2 µM)	50 µg/mL (≈ 126 µM)	63.2 (≈ 25 µg/mL)	25 µg/mL (≈ 63.2 µM)			
O=C(O)c1cn(C2CC2)c2cc(N3CCNCC3)c(F)cc2c1=O [CIPROFLOXACIN]	2 (≈ 6.04 µM)		9.41 (≈ 3.12 µg/mL)	4 µg/mL (≈ 12.1 µM)			
CN[C@@H]1[C@H](O[C@H]2[C@H](O[C@H]3[C@H](O)[C@@H](O)[C@H](N=C(N)N)[C@@H](O)[C@@H]3N=C(N)N)O[C@@H](C)[C@]2(O)C=O)O[C@@H](CO)[C@H](O)[C@H]1O			11.7 (≈ 6.83 µg/mL)				
O=C(NCc1cn(Cc2ccc(F)cc2)nn1)c1cnccn1	6.25 (≈ 20 µM)	12.5 µg/mL (≈ 40 µM)	4.99 (≈ 1.56 µg/mL)	12.5 µg/mL (≈ 40 µM)	318	496 (≈ 1590 µM)	5.9
